Data as given in patent publication US9481688B2, “(Thieno[2,3-b][1,5]benzoxazepin-4-yl)piperazin-1-yl compounds as dual activity H1 inverse agonists/5-HT2A antagonists” (Eli Lilly and Company, priority 2011, dated 2016).
pIC50, pKi: −log10 of the molar value. Where a name gives a salt, the structure may show the parent alone.

Key:
5-HT1B = 5-HT1B (Homo sapiens (Human), UniProt P28222); assay: 5-HT1B binding
Text: (§1) Further, the compounds of the invention may be tested in binding assays and functional activity assays by well known methods for other physiologically important receptors such as, but not limited to, the hERG channel, other serotonin receptors (specifically 5-HT1B, 5-HT1D, receptors, lack of agonist activity at 5-HT2B receptors, 5-HT2C, 5-HT5, 5-HT6, and 5-HT7 receptors), dopaminergic receptors (specifically D1, D2, and D3), GABAA receptors, adrenergic receptors and monoamine transporters.

[1] = Plasma clearance in rat (intravenous); type: in vivo; conditions: 1 mg/kg, dihydrochloride
Method: Male Sprague Dawley rats (body weight range 250-320 g) with indwelling femoral arterial cannulae are obtained from Charles River, Wilmington, Mass. 01887, USA. Test compound is administered intravenously in solution (1 mL/kg) in 20% Captisol® in 22.5 mM phosphate buffer, pH 2, at a final drug concentration of 1.0 mg/mL (free base equivalents). Blood samples are obtained using the indwelling cannula over 24 hr. Samples of plasma are obtained by centrifugation and stored frozen (−20° C.), or on dry ice, prior to analysis.
Frozen plasma samples are thawed to room temperature for bioanalysis of concentrations of test compound. A related internal standard compound in acetonitrile/methanol (1:1, v/v) is added to all samples of plasma (1:1, v/v). The samples are centrifuged to remove precipitated protein prior to analysis. The supernatants are analysed by injection and rapid gradient elution on a Javelin Betasil C18 column (20×2.1 mm cartridge, Mobile phase A: Water/1 M NH4HCO3, 2000:10 v/v, Mobile Phase B: MeOH/1 M NH4HCO3, 2000:10 v/v). The eluted analytes are detected by LC-MS-MS analysis using a Sciex API 4000 triple quadrupole mass spectrometer. Concentrations of compound are determined from standards prepared and analysed under identical conditions. Clearance is calculated using non-compartmental analysis in Watson 7.4, Thermo Fisher Scientific, Inc.

[2] = molecular target: recombinant 5-HT2C receptor (human) (Homo sapiens (Human), UniProt P28335); assay: 5-HT2C competition binding assay ([125I]-DOI, SPA); conditions: dihydrochloride
recombinant 5-HT2C receptor (human), sequence (P28335 whole entry, looked up): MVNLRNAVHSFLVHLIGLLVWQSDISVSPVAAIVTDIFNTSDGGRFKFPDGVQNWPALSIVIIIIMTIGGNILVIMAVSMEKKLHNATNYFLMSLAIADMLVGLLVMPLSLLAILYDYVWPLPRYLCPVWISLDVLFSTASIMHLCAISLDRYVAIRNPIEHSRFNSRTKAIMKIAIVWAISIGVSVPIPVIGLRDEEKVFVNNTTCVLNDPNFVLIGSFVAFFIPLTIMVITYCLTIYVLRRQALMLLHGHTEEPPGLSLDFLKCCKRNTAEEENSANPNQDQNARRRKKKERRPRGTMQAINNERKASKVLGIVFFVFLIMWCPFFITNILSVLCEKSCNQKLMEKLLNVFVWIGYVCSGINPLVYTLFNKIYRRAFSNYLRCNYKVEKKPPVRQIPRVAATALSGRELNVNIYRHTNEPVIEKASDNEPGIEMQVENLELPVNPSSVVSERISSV
Method: [^125I]-(±)DOI binding experiments are carried out in SPA 96-well format. Membranes used in this assay are prepared from AV-12 cells stably expressing recombinant 5-HT2C receptor (human). The incubation is initiated by the addition of a mixture of WGA PVT SPA beads (0.5 mg/well, Perkin Elmer (MA, USA), RPNQ0001) and 2.5 μg membranes to assay buffer (50 mM Tris-HCl, 10 mM MgCl2, 0.5 mM EDTA, 10 μM pargyline, 0.1% ascorbic acid, pH7.4) containing 0.2 nM [[^125I]-(±)DOI and varying concentrations of the test compound (10 point concentration response curves). Non-specific binding is determined in the presence of 20 μM 1-(1-Naphthyl) piperazine. Samples are incubated for 4 hr. at room temperature (22° C.) and then read in a Microbeta Trilux.
Curves are evaluated using a 4-parameter logistic nonlinear equation to obtain the concentration of competitor causing 50% inhibition of radioligand binding (IC50). Equilibrium dissociation constants (Ki) are calculated according to the equation Ki=IC50/(1+L/Kd), where L equals the concentration of radioligand used in the experiment and Kd equals the equilibrium dissociation constant of the radioligand for the receptor, determined from standard saturation analysis or homologous competition experiments. […]

native GABAA receptors = assay: GABAA antagonism using native receptors in primary neuronal cultures (FLIPR calcium flux); type: cell-based, rat; conditions: against 10 μM GABA
Method: Activity of compounds on native GABAA receptors is evaluated by monitoring calcium fluxes using a 96 well format FLIPR® system (Fluorometric Imaging Plate Reader (FLIPR®, Molecular Devices). Briefly, cortical embryonic neurons are dissociated from E18 rat embryos and plated at optimum density into black-walled, transparent bottom poly-D-lysine coated 96-well FLIPR® plates. After loading the cells with a calcium sensitive dye (Fluo4-AM, Molecular Devices), the cells are bathed in a solution containing low chloride (chloride replaced by gluconate). Under these conditions activation of GABAA receptors causes an efflux of chloride ions (in the direction of the chemical gradient), which results in membrane depolarization and consequently activation of voltage gated calcium channels (VGCCs). Calcium influx through VGCCs is recorded and analysed offline using the FLIPR® system. For a pharmacological validation of the assay, concentration response curves (CRC) are recorded for the standard agonist (GABA) and standard antagonist (Gabazine). […]
The antagonist effects of compounds are quantified using 10-point dose response curves by comparing the peak fluorescent responses to the agonist GABA in the presence and absence of compound. […] Antagonist effects are calculated as a percent of the assay window. […]

Wistar rats = assay: Sleep and behavioral monitoring in rats (EEG, EMG, motion); conditions: for Rebound Insomnia, Adj. Mean: NREM + REM sleep in 7th-9th hours post-treatment; for Rebound Insomnia, Adj. Mean / REM inhibition, Adj. Mean / Cumulative NREM sleep, Adj. Mean / Cumulative Total sleep, Adj. Mean / Locomotor Activity Intensity, Adj. Mean: difference from vehicle; for REM inhibition, Adj. Mean: REM sleep in first 12 hr. post-treatment; for Average Sleep Bout, Adj. Mean / Longest Sleep Bout, Adj. Mean / Cumulative NREM sleep, Adj. Mean / Cumulative Total sleep, Adj. Mean / Locomotor Activity Intensity, Adj. Mean: first 6 hr. post-treatment
5-HT1D = 5-HT1D (Homo sapiens (Human), UniProt P28221); assay: 5-HT1D binding
5-HT1D, sequence (P28221 whole entry, species assumed): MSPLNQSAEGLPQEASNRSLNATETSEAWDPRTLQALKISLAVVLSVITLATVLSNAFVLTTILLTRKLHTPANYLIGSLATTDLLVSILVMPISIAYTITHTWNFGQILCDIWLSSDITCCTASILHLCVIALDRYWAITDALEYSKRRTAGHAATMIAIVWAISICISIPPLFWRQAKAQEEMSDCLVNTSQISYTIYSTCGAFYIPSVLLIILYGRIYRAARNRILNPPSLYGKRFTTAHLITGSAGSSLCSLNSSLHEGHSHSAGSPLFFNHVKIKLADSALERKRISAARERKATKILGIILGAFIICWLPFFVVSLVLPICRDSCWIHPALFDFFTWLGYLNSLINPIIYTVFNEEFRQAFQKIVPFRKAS
Text: as §1

[3] = rat, PO, 6 hr. after treatment, 4 parameter logistic regression

5-HT1B, sequence (P28222 whole entry, species assumed): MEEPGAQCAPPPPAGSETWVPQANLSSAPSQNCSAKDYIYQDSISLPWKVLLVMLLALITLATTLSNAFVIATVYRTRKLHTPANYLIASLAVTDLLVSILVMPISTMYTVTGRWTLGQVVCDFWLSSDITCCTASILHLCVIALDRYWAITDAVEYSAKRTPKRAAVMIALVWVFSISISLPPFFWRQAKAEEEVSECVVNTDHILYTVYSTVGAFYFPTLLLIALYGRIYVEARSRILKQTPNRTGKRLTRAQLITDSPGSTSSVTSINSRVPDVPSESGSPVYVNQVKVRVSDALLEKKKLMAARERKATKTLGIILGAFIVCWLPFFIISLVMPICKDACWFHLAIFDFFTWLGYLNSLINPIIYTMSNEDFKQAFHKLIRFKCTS

Cc1ccc2c(c1)Oc1sc(Cl)cc1C(N1CCN(CC(C)(C)C(=O)O)CC1)=N2 [Example 3, 3-[4-(2-chloro-8-methyl-thieno[2,3-b][1,5]benzoxazepin-4-yl)piperazin-1-yl]-2,2-dimethyl-propanoic acid dihydrochloride]
pKi (5-HT1B): < 5.25 | clearance [1]: 14.5 (+/−1.4, n = 3) mL/min./Kg | pKi [2]: 6.48 | pIC50 (native GABAA receptors): < 4.00 | Rebound Insomnia, Adj. Mean (Wistar rats; 0.025 mg/kg PO): 1.4 min | REM inhibition, Adj. Mean (Wistar rats; 0.025 mg/kg PO): 0.5 min | Average Sleep Bout, Adj. Mean (Wistar rats; 0.025 mg/kg PO): 1.2 n-fold increase over vehicle controls | Longest Sleep Bout, Adj. Mean (Wistar rats; 0.025 mg/kg PO): 1.1 n-fold increase over vehicle controls | Cumulative NREM sleep, Adj. Mean (Wistar rats; 0.025 mg/kg PO): 6.5 min | Cumulative Total sleep, Adj. Mean (Wistar rats; 0.025 mg/kg PO): 7.7 min | Locomotor Activity Intensity, Adj. Mean (Wistar rats; 0.025 mg/kg PO): 0.2 LMA counts per minute of EEG-defined wakefulness | Rebound Insomnia, Adj. Mean (Wistar rats; 0.035 mg/kg PO): 1.3 min | REM inhibition, Adj. Mean (Wistar rats; 0.035 mg/kg PO): -1.8 min | Average Sleep Bout, Adj. Mean (Wistar rats; 0.035 mg/kg PO): 1.3 n-fold increase over vehicle controls | Longest Sleep Bout, Adj. Mean (Wistar rats; 0.035 mg/kg PO): 1.1 n-fold increase over vehicle controls | Cumulative NREM sleep, Adj. Mean (Wistar rats; 0.035 mg/kg PO): 19.2 min | Cumulative Total sleep, Adj. Mean (Wistar rats; 0.035 mg/kg PO): 18.9 min | Locomotor Activity Intensity, Adj. Mean (Wistar rats; 0.035 mg/kg PO): 0.2 LMA counts per minute of EEG-defined wakefulness | Rebound Insomnia, Adj. Mean (Wistar rats; 0.05 mg/kg PO): 0.2 min | REM inhibition, Adj. Mean (Wistar rats; 0.05 mg/kg PO): 4.2 min | Average Sleep Bout, Adj. Mean (Wistar rats; 0.05 mg/kg PO): 1.6 n-fold increase over vehicle controls | Longest Sleep Bout, Adj. Mean (Wistar rats; 0.05 mg/kg PO): 1.4 n-fold increase over vehicle controls | Cumulative NREM sleep, Adj. Mean (Wistar rats; 0.05 mg/kg PO): 23.4 min | Cumulative Total sleep, Adj. Mean (Wistar rats; 0.05 mg/kg PO): 25.3 min | Locomotor Activity Intensity, Adj. Mean (Wistar rats; 0.05 mg/kg PO): −0.3 LMA counts per minute of EEG-defined wakefulness | Rebound Insomnia, Adj. Mean (Wistar rats; 0.1 mg/kg PO): -3.7 min | REM inhibition, Adj. Mean (Wistar rats; 0.1 mg/kg PO): 4.9 min | Average Sleep Bout, Adj. Mean (Wistar rats; 0.1 mg/kg PO): 1.7 n-fold increase over vehicle controls | Longest Sleep Bout, Adj. Mean (Wistar rats; 0.1 mg/kg PO): 1.5 n-fold increase over vehicle controls | Cumulative NREM sleep, Adj. Mean (Wistar rats; 0.1 mg/kg PO): 26.7 min | Cumulative Total sleep, Adj. Mean (Wistar rats; 0.1 mg/kg PO): 28.7 min | Locomotor Activity Intensity, Adj. Mean (Wistar rats; 0.1 mg/kg PO): 0.1 LMA counts per minute of EEG-defined wakefulness | Rebound Insomnia, Adj. Mean (Wistar rats; 0.25 mg/kg PO): -2.2 min | REM inhibition, Adj. Mean (Wistar rats; 0.25 mg/kg PO): 2.0 min | Average Sleep Bout, Adj. Mean (Wistar rats; 0.25 mg/kg PO): 2.1 n-fold increase over vehicle controls | Longest Sleep Bout, Adj. Mean (Wistar rats; 0.25 mg/kg PO): 2.0 n-fold increase over vehicle controls | Cumulative NREM sleep, Adj. Mean (Wistar rats; 0.25 mg/kg PO): 37.9 min | Cumulative Total sleep, Adj. Mean (Wistar rats; 0.25 mg/kg PO): 38.9 min | Locomotor Activity Intensity, Adj. Mean (Wistar rats; 0.25 mg/kg PO): −0.7 LMA counts per minute of EEG-defined wakefulness | Rebound Insomnia, Adj. Mean (Wistar rats; 0.5 mg/kg PO): -5.0 min | REM inhibition, Adj. Mean (Wistar rats; 0.5 mg/kg PO): 0.4 min | Average Sleep Bout, Adj. Mean (Wistar rats; 0.5 mg/kg PO): 1.8 n-fold increase over vehicle controls | Longest Sleep Bout, Adj. Mean (Wistar rats; 0.5 mg/kg PO): 2.2 n-fold increase over vehicle controls | Cumulative NREM sleep, Adj. Mean (Wistar rats; 0.5 mg/kg PO): 32.9 min | Cumulative Total sleep, Adj. Mean (Wistar rats; 0.5 mg/kg PO): 30.9 min | Locomotor Activity Intensity, Adj. Mean (Wistar rats; 0.5 mg/kg PO): 0.6 LMA counts per minute of EEG-defined wakefulness | Rebound Insomnia, Adj. Mean (Wistar rats; 1 mg/kg PO): 1.6 min | REM inhibition, Adj. Mean (Wistar rats; 1 mg/kg PO): -0.1 min | Average Sleep Bout, Adj. Mean (Wistar rats; 1 mg/kg PO): 1.7 n-fold increase over vehicle controls | Longest Sleep Bout, Adj. Mean (Wistar rats; 1 mg/kg PO): 2.0 n-fold increase over vehicle controls | Cumulative NREM sleep, Adj. Mean (Wistar rats; 1 mg/kg PO): 34.0 min | Cumulative Total sleep, Adj. Mean (Wistar rats; 1 mg/kg PO): 33.6 min | Locomotor Activity Intensity, Adj. Mean (Wistar rats; 1 mg/kg PO): −1.6 LMA counts per minute of EEG-defined wakefulness | Rebound Insomnia, Adj. Mean (Wistar rats; 3 mg/kg PO): 0.3 min | REM inhibition, Adj. Mean (Wistar rats; 3 mg/kg PO): -4.6 min | Average Sleep Bout, Adj. Mean (Wistar rats; 3 mg/kg PO): 2.0 n-fold increase over vehicle controls | Longest Sleep Bout, Adj. Mean (Wistar rats; 3 mg/kg PO): 2.7 n-fold increase over vehicle controls | Cumulative NREM sleep, Adj. Mean (Wistar rats; 3 mg/kg PO): 31.7 min | Cumulative Total sleep, Adj. Mean (Wistar rats; 3 mg/kg PO): 29.7 min | Locomotor Activity Intensity, Adj. Mean (Wistar rats; 3 mg/kg PO): −3.1 LMA counts per minute of EEG-defined wakefulness | Rebound Insomnia, Adj. Mean (Wistar rats; 10 mg/kg PO): -3.1 min | REM inhibition, Adj. Mean (Wistar rats; 10 mg/kg PO): -9.4 min | Average Sleep Bout, Adj. Mean (Wistar rats; 10 mg/kg PO): 2.0 n-fold increase over vehicle controls | Longest Sleep Bout, Adj. Mean (Wistar rats; 10 mg/kg PO): 2.3 n-fold increase over vehicle controls | Cumulative NREM sleep, Adj. Mean (Wistar rats; 10 mg/kg PO): 29.1 min | Cumulative Total sleep, Adj. Mean (Wistar rats; 10 mg/kg PO): 26.5 min | Locomotor Activity Intensity, Adj. Mean (Wistar rats; 10 mg/kg PO): −1.9 LMA counts per minute of EEG-defined wakefulness | change in awake time following treatment (dose response curve, FIG. 2) (Wistar rats; rat): does not result in rebound insomnia | change in cumulative REM sleep time (dose response curve, FIG. 1) (Wistar rats; rat): does not inhibit REM sleep | change in distances moved during periods of wakefulness (dose response curve, FIG. 3) (Wistar rats; rat): does not inhibit or stimulate normal activity | Estimated efficacy dose, NREM accumulation = 30 min. (Wistar rats; [3]): 0.09 mg/kg | Estimated efficacy dose, average sleep bout (1.5-fold increase) (Wistar rats; [3]): 0.04 mg/kg | Estimated efficacy dose, longest sleep bout (1.75-fold increase) (Wistar rats; [3]): 0.12 mg/kg | Estimated efficacy dose, total sleep accumulation = 25 min. (Wistar rats; [3]): 0.05 mg/kg | REM sleep inhibition (Wistar rats; rat, at 3 mg/kg): without significant | cumulative NREM sleep time (Wistar rats; rat, at 3 mg/kg): significantly increase | cumulative total sleep time (Wistar rats; rat, at 3 mg/kg): significantly increase | inhibition of locomotor intensity (LMI) (Wistar rats; rat, at 3 mg/kg): without significant | rebound insomnia (Wistar rats; rat, at 3 mg/kg): without significant rebound insomnia | NREM sleep (Wistar rats; rat, coadministered with citalopram): significantly increase NREM sleep at significantly lower doses | pKi (5-HT1D): < 5.40
